The values that follow come from patent publication US20150313928A1, “NEW APPLICATION OF CATALPOL” (SUZHOU YOUSEEN NEW PHARMACY DEVELOPMENT CO., LTD., priority 2012, published 2015).

One test concerns Kunming mice. As to the kind of experiment: Animal model preparation: injection of levothyroxine sodium (heart rate, serum T3/T4, heart weight index). The format is in vivo. Conditions: levothyroxine sodium 350 μg/kg subcutaneous injection, model group. How it is done: The animals are placed indoor for milieu adaptation 2 days prior to the experiment. 20 Kunming mice are randomly selected and put in the blank group, administered normal saline by subcutaneous injection, while the other mice are administered levothyroxine sodium 350 μg/kg by subcutaneous injection, with a daily dosage of 10 ml/kg, for 7 consecutive days.
After the third hour at the sixth day of medication, 10 mice (half male and half female) are randomly selected respectively from the blank group and the model group for measurement of heart rate. Under anesthesia, the mice are taken electrocardiogram for calculation of their heart rate. Statistical analysis is then conducted for comparison of differences.
In the case of substantial acceleration of its heart rate, a mouse is suspended of food without suspension of water for 12 hours starting at 8 o'clock of the last day (the seventh day) of medication. Each mouse in each group is taken of its weight at 8 o'clock the next morning. Blood is taken from its eye ball and subsequent to coagulation, put in centrifugation for 15 minutes at 3500 r/min, for measurement of T3 and T4 by means of radioimmunoas say. Each mouse is sacrificed and its heart is taken out for measurement of its heart weight and left ventricular weight. At conclusion of the experiment, the heart weight index and left ventricular weight index is calculated. [Heart weight index HWI=heart weight (HW)/body weight (BW); left ventricular weight index LVWI=left ventricular weight (LVW)/ body weight (BW)]
If the levels of the above indexes are substantially elevated, the model is regarded as successful.

Test [1] concerns mice in the hyperthyroidism model group. The experiment in a line: Measurement of heart indexes of the mice. In kind it is in vivo, Kunming mice. Also on record: HWI / LVWI: unit not given here. As for the experimental part:
(§1) The successfully modeled mice are randomized into 5 groups (10 mice per group), that is, the hyperthyroidism model group, the catalpol low dosage group, the catalpol medium group, the catalpol high dosage group, and the methimazole group, plus the blank group (10 mice).
(§2) The catalpol low dosage group is administered 30mg/kg catalpol, the catalpol medium dosage group 60 mg/kg, the catalpol high group 90 mg/kg and the methimazole group 7.5 mg/kg methimazole, all by gastric infusion, while the blank group and the hyperthyroidism group are administered equal amount of distilled water, once per day, for 20 consecutive days. With the exception of the blank group, each mouse in each group continues to be administered 350 ug/kg levothyroxine sodium by means of subcutaneous injection each day.
A mouse is sacrificed its heart instantly taken out for measurement of its heart weight (HW) and (left ventricular weight (LVW). Heart weight index (HWI=HW/BW) and left ventricular weight index (LVWI=LVW/BW) is calculated at conclusion the experiment.

The test system is the same in test [2]. The experiment in a line: Measurement of mice weight change. The format is in vivo, Kunming mice. How it is done: as §1, §2
A mouse is suspended of food without suspension of water for 12 hours starting at 8 o'clock one day prior to the first medication, and all the mice are taken of their body weight (BW) the next day, that is, the pre-treatment body weight (BW1); the mouse is suspended of food without suspension of water for 12 hours starting at 8 o'clock of the day of the last medication, its body weight (BW) is taken the next day, that is, the post-treatment body weight (BW2); the difference of the pre-treatment body weight and the post-treatment body weight is calculated to compare the change of the body weight of the mice among each group.

Test [3] shares this test system. As to the kind of experiment: Measurement of heart rate of the mice (electrocardiogram). In kind it is in vivo, Kunming mice. How it is done: The successfully modeled mice are randomized into 5 groups (10 mice per group), that is, the hyperthyroidism model group, the catalpol low dosage group, the catalpol medium group, the catalpol high dosage group, and the methimazole group, plus the blank group (10 mice). The catalpol low dosage group is administered 30mg/kg catalpol, the catalpol medium dosage group 60 mg/kg, the catalpol high group 90 mg/kg and the methimazole group 7.5 mg/kg methimazole, all by gastric infusion, while the blank group and the hyperthyroidism group are administered equal amount of distilled water, once per day, for 20 consecutive days. With the exception of the blank group, each mouse in each group continues to be administered 350 ug/kg levothyroxine sodium by means of subcutaneous injection each day. All the mice are suspended of food without suspension of water for 12 hours one day prior to the last medication and heart rate is measured 3 hours later. Heart rate (HR) is calculated via the electrocardiogram, statistics is then conducted, and differences are compared.

For test [4] the test system is unchanged. As to the kind of experiment: Measurement of the oxygen consumption of the mice. In kind it is in vivo, Kunming mice. How it is done: as §1, §2
Oxygen consumption is measured two days prior to the last medication. The specific method is: take a model CY-3 digital oxygen meter and install therein an oxygen electrode. Connect, perform zero adjustment, and repeat until the instrument is stable for use. Take a 500 ml bottle, fix its outward connecting pipe with a rubber cover, seal with Vaseline. The rubber cover is connected via a tee, and a shift in the tee is selectable for connection or disconnection with outer space. A mouse is placed inside the bottle, and the mouth of the bottle is instantly covered with a wood plug to shut off air from the inner flask. The filtering flask is horizontally placed on the experiment table, and timing of 20 minutes After 20 minute, 10 ml air from the bottle was taken out by a injector and rapidly injected into a connector of the CY-3 type digital oxygen analyzer with the oxygen analyzer indicating oxygen content of the pumped in air. The data, when stable, is recorded as the residual oxygen value, then the oxygen consumption (20 min, 10 ml)=21%—residual oxygen value (%). (21% oxygen in air).

The test system is the same in test [5]. The experiment in a line: Measurement of the level of thyroid hormone of serum (radioimmunoassay). In kind it is in vivo, Kunming mice. As for the experimental part:
as §1, §2
A mouse is suspended of food without suspension of water for 12 hours subsequent to the last medication, and blood is taken from its eye ball, put in centrifugation for 15 minutes at 3500 r/min, serum is pumped out for measurement of T3, T4, FT3, and FT4 by means of radioimmunoassay. For detailed operations, see the instruction manual.

Setting [6] is: serum, methimazole 7.5 mg/kg gastric infusion once per day, 20 days.

`N[C@@H](Cc1cc(I)c(Oc2cc(I)c(O)c(I)c2)c(I)c1)C(=O)O` [levothyroxine sodium] gave an HWI in the test on Kunming mice (heart weight index = HW/BW, 7 day) of 5.642 mg/g. Also, in the test with Kunming mice (left ventricular weight index = LVW/BW, 7 day), the LVWI came out at 3.735 mg/g. Also, the HR in the test on Kunming mice (6 day, mean ± S) amounted to 674.42 times/min. Moreover, in the test with Kunming mice (serum, 7 day, mean ± S), the T3 was 2.89 ng/mL and the T4 was found to be 311.43 ng/mL.
The compound `Cn1cc[nH]c1=S` [methimazole, reference compound] returned an HWI in test [1] (heart weight index = HW/BW, methimazole 7.5 mg/kg gastric infusion once per day, 20 days) of 5.784. Also, the heart weight index result in test [1] (in words, compared with the model group, catalpol medium and high dosage and methimazole significant) is “decreased heart weight index to some extent”. Besides, the left ventricular index result in test [1] (in words, compared with the model group, catalpol medium and high dosage significant (P<0.01)) is recorded as “decreased left ventricular index to some extent”. This compound came in with an LVWI in test [1] (left ventricular weight index = LVW/BW, methimazole 7.5 mg/kg gastric infusion once per day, 20 days) of 1.560. The “BW2 − BW1” value in test [2] (body weight difference, methimazole 7.5 mg/kg gastric infusion once per day, 20 days) came out at 9.00 g. Further, in test [2] (in words, compared with the model group, catalpol groups, methimazole 7.5 mg/kg), the body weight increase entry is reported as “more body weight increase to some extent”. The same compound returned a BW2 in test [2] (post-treatment body weight, methimazole 7.5 mg/kg gastric infusion once per day, 20 days, levothyroxine sodium 350 ug/kg s.c. daily) of 36.30 g. Moreover, the BW1 in test [2] (pre-treatment body weight, methimazole 7.5 mg/kg group) amounted to 27.30 g. Also, in test [3] (in words, compared with the model group, catalpol 30, 60, 90 mg/kg groups, methimazole 7.5 mg/kg), the Heart rate result is “decreased heart rate to some extent”. The Heart rate in test [3] (methimazole 7.5 mg/kg gastric infusion once per day, 20 days, levothyroxine sodium 350 ug/kg s.c. daily) was determined as 474.02 times/min. Besides, the oxygen consumption entry in test [4] (in words, compared with the model group, catalpol low (30 mg/kg) and high (90 mg/kg) dosage groups, methimazole 7.5 mg/kg) is given as “significantly decreased oxygen consumption”. The “Decrease in oxygen content” value in test [4] (methimazole 7.5 mg/kg gastric infusion once per day, measured two days prior to the last medication, 21% minus residual oxygen) is recorded as 8.53 %, 20 min. The “T3 level in the serum” value in test [5] (in words, compared with the model group, catalpol 30, 60, 90 mg/kg groups, methimazole 7.5 mg/kg, P<0.05) is listed as “decreased T3 level in the serum to some extent”. For the same compound, in test [5] (in words, compared with the model group, catalpol low P<0.01, medium, high and methimazole P<0.05), the “FT3 level in the serum” value is “decreased FT3 level in the serum to some extent”. In addition, the “FT4 level in the serum” value in test [5] (in words, compared with the model group, only catalpol low dosage significant (P<0.05)) is listed as “decreased FT4 level in the serum to some extent”. Besides, the “T4 level in the serum” value in test [5] (in words, compared with the model group, only methimazole difference significant (P<0.05)) is recorded as “decreased T4 level in the serum to some extent”. In test [5] (setting [6]), this compound came in with an FT3 of 8.80 ng/mL, an FT4 of 26.85 ng/mL, a T3 of 3.64 ng/mL and a T4 of 145.61 ng/mL.
